# Experimental data reported in patent publication US5444042A, “Method of treatment of neurodegeneration with calpain inhibitors” (Cortex Pharmaceuticals, priority 1994, dated 1995).
# Where a SMILES comes first, the peptide text is derived from it. The star is where a group is joined. Boc = CC(C)(C)OC(=O)*; CH2Cl = ClC*
# Tests used:
# Papain [1] = target: T1, Papain (Carica papaya, UniProt P00784); test: Papain inhibition, Ki by Dixon plot (Table PKC1); assay type: biochemical; settings: 0.05M Tris-HCl pH 7.5, 2 mM EDTA, 5 mM cysteine, 1% DMSO, 25° C., substrate Nα-Benzoyl-Arg-AMC; read-out: Ki P (Papain)
# T1 sequence (P00784 134-345): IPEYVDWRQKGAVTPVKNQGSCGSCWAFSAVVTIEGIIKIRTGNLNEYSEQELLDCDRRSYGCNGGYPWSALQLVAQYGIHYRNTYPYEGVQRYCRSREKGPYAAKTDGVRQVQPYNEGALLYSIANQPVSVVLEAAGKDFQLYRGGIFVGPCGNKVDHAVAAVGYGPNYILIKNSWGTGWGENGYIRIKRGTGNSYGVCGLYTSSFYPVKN
# Description: Various concentrations of inhibitors in dimethylsulfoxide (DMSO) were added to the assay mixture, which contained buffer and substrate. The reaction was started by the addition of the enzyme and the hydrolysis rates were followed spectrophotometrically or fluorimetrically. 88 mM KH2 PO4, 12 mM Na2 HPO4, 1.33 mM EDTA, 2.7 mM cysteine, pH 6.0 was used as a buffer for cathepsin B; and 20 mM Hepes, 10 mM CaCl2, 10 mM β-mercaptoethanol, pH 7.2 buffer was utilized for calpain I and calpain II.
# All peptide thioester hydrolysis rates were measured with assay mixtures containing 4,4'-dithiodipyridine [e324=19800 M-1 cm-1; Grasetti & Murray, Arch. Biochem. Biophys. 119, pp 41-49 (1967)]. Papain was assayed with Bz-Arg-AMC or Bz-Arg-NA [Kanaoka et al., Chem. Pharm. Bull. 25, 3126-3128 (1977)], and the AMC (7-amino-4-methylcoumarin) release was followed fluorimetrically (excitation at 380 nm, and emission at 460 nm). Cathepsin B was assayed with Z-Arg-Arg-AFC [Barrett and Kirschke, Methods Enzymol. 80, 535-561 (1981)], and the AFC (7-amino-4-trifluoromethylcoumarin) release was followed fluorimetrically (excitation at 400 nm, and emission at 505 nm). Calpain I from human erythrocytes and calpain II from rabbit were assayed using Suc-Leu-Tyr-AMC [Sasaki et al., J. Biol. Chem. 259, 12489-12494 (1984), hereby incorporated by reference], and the AMC (7-amino-4-methylcoumarin) release was followed fluorimetrically (excitation at 380 nm, and emission at 460 nm). Enzymatic hydrolysis rates were measured at various substrate and inhibitor concentrations, and Ki values were determined by Dixon plot.
# The inhibition constants for papain shown in Table PKC1 were measured in 0.05M Tris-HCl, pH 7.5 buffer, containing 2 mM EDTA, 5 mM cysteine (freshly prepared), 1% DMSO, at 25° C., using N^α -Benzoyl-Arg-AMC as a substrate, except that those values of inhibition constants for papain marked with an "e" in Table PKC1 were measured in 50 mM Tris-HCl, pH 7.5 buffer, containing 20 mM EDTA, 5 mM cysteine, 9% DMSO, at 25° C., using N^α -Benzoyl-Arg-NA as a substrate.
# Papain [2] = target: T1, Papain; test: Kapp/[I] progress curve method, Papain (Table 1C); assay type: biochemical; settings: benzoyl-arg-4-nitroanilide
# Description: (§1) The Halo-Ketone Peptides, like the substituted isocoumarins, are irreversible inhibitors of Calpain. We determined the Kapp /[I] values for various members of this class of compounds against Calpains I and II. For comparison, we also determined these values against the additional thiol proteases Papain and Cathepsin B for at least one Halo-Ketone Peptide.
# (§2) We assayed Calpain I and II using Suc-leu-tyr-amidomethylcoumarin. Papain was assayed using benzoyl-arg-4-nitroanilide, and Cathepsin B (bovine) was assayed using CBZ-lys-4-nitrophenyl ester. We followed the progress curve method of Tian and Tsou, Biochemistry, 21:1028-1032 (1982), the disclosure of which is hereby incorporated by reference, to derive kinetic data. Briefly, this method makes use of the equation: [formula] where [P.infin. ] represents the concentration of product formed at a time approaching infinity, A is the Kapp in the presence of substrate (S), K is the Michaelis constant and [Y] is the concentration of the inhibitor. Since [S] and [Y] are known and V and K can be determined, Kapp can be readily determined.
# Cathepsin B = Cathepsin B (Bos taurus, UniProt P07688); test: Kapp/[I] progress curve method, Cathepsin B (Table 1C); assay type: biochemical, bovine; settings: CBZ-lys-4-nitrophenyl ester
# Description: as §1, §2
# Calpain II = test: Kapp/[I] progress curve method, Calpain II (Table 1C); assay type: biochemical; design: unit not given here; settings: Rabbit Calpain II, Suc-leu-tyr-amidomethylcoumarin
# Description: as §1, §2
# [3] = test system: gerbils subjected to transient ischemia; test: Transient ischemia in gerbils, neuronal loss in CA1 (Example 3A); assay type: in vivo, gerbil; settings: leupeptin 20 mg/ml intracerebroventricular perfusion 3 days before 10 min ischemia; 14 days later
# Description: A small cannula was implanted in the right lateral ventricle of adult gerbils, and secured to the skull with dental cement. An Alzet micro-osmotic pump was attached to the cannula for intracerebroventricular perfusion. The pump was filled with either saline alone (control) or leupeptin (20 mg/ml in saline). After three days perfusion with either the control solution or with the leupeptin solution, transient ischemia was induced by bilaterally clamping the carotid arteries for a period of ten minutes. […] Fourteen days later, the animals were sacrificed by Nembutal overdose and transcardial perfusion of a 10% solution of paraformaldehyde in PBS. Coronal sections of the brain were stained with cresyl violet and were examined for the extent of neuronal loss.
# [4] = test system: Calpain activity (spectrin BDP's); test: Transient ischemia in gerbils, spectrin BDP's in CA1 (Example 3B); assay type: in vivo, gerbil; settings: CA1 region, 30 minutes after clamping
# Description: Implantation surgeries and clamping of the carotid arteries were performed as above with a control-ischemia group (n=4) and a leupeptin-ischemia group (n=5). A third group of animals (n=4) received implantation with pumping of saline, but was not subjected to ischemia. Animals were sacrificed by decapitation 30 minutes after clamping of the arteries. The brains were rapidly removed and placed in cold homogenization buffer (0.32M sucrose, 10 mM Tris-HCl, 2 mM EDTA, 1 mM EGTA, 100 μM leupeptin and 1 μg/ml of the Halo-Ketone Compound, tos-phe-CH2 Cl (TPCK)). The CA1 region of the hippocampus was then dissected. The samples from both control and leupeptin treated animals were then prepared for SDS-PAGE and immunoblotting with labeled anti-spectrin antibody, as described above in connection with in vitro uses of the Calpain Inhibitors. […] These BDP's co-migrated with BDP's observed after in vitro proteolysis of spectrin with Calpain.
# hippocampal slices = test: Hippocampal slice EPSP recovery from severe hypoxia (FIG. 5); assay type: cell-based, rat; settings: one hour incubation
# Description: These studies were performed in a manner similar to that of Example 7B, except using a hypoxic environment in place of the anoxia of Example 7B. […] The control slices experienced little or no recovery.
smiles,measurement,setting,value
"CCC(NC(=O)[C@@H]1CCCN1C(=O)[C@H](C)NC(=O)[C@H](C)NC(=O)CCC(=O)OC)C(=O)C(=O)OC (mixture of isomers) [MeO-Suc-Ala-Ala-Pro-Abu-COOMe, MeO-Suc-Ala-Ala-Pro-DL-Abu-CO2 Me]",Ki,Papain [1],700 nM
"CCOC(=O)C(=O)C(CC)NC(=O)[C@H](C)NC(=O)[C@H](C)NC(=O)OCc1ccccc1 (mixture of isomers) [Z-Ala-Ala-DL-Abu-COOEt, Z-Ala-Ala-DL-Abu-CO2 Et]",Ki,Papain [1],900 nM
CC(C)CC(NC(=O)CNC(=O)OC(C)(C)C)C(=O)NC(Cc1ccccc1)C(=O)CCl (stereo not drawn) [Boc-Gly-Leu-Phe-CH2 Cl] (Boc-Gly-Leu-Phe-CH2Cl; configuration not given here),Kapp/[I] P,Papain [2],540000
same,Kapp/[I] CB,Cathepsin B,290000
same,Kapp/[I] CII,Calpain II,902000
"CC(=O)N[C@@H](CC(C)C)C(=O)N[C@@H](CC(C)C)C(=O)N[C@H](C=O)CCCNC(=N)N [Leupeptin, Ac-Leu-Leu-Arg-H, reference compound]",loss of neurons in CA1 field,[3],15%
same,spectrin BDP's relative to control ischemia treated gerbils,[4],approximately 25%
CCOC(=O)C(=O)C(Cc1ccccc1)NC(=O)C(CC(C)C)NC(=O)OCc1ccccc1 (stereo not drawn) [Z-Leu-Phe-COOEt],percent recovery of EPSP from severe hypoxia (FIG. 5),hippocampal slices,partial recovery
